Measurements taken from ChEMBL document CHEMBL4177660, “Discovery of furan and dihydrofuran-fused tricyclic benzo[d]imidazole derivatives as potent and orally efficacious microsomal prostaglandin E synthase-1 (mPGES-1) inhibitors: Part-1” (Bioorg Med Chem Lett, 2017).
≈ marks a conversion by molar mass, not a printed value.

Columns and labels:
[1] = Cmax in Beagle dog at 10 mg/kg, po; type: ADME, organism-based, Canis lupus familiaris; set-up: dose 10 mg/kg, route oral; conditions: in vivo
[2] = Solubility of the compound in acetate buffer at pH 4.5; type: physicochemical
[3] = Cmax in Dunkin-Hartley guinea pig at 10 mg/kg, po; type: ADME, organism-based, Cavia porcellus; set-up: dose 10 mg/kg, route oral; conditions: in vivo
[4] = Cmax in Dunkin-Hartley guinea pig at 30 mg/kg, po; type: ADME, organism-based, Cavia porcellus; set-up: dose 30 mg/kg, route oral; conditions: in vivo
[5] = AUC (0 to 24 hrs) in Dunkin-Hartley guinea pig at 30 mg/kg, po; type: ADME, organism-based, Cavia porcellus; set-up: dose 30 mg/kg, time < 24 hr, route oral; conditions: in vivo
[6] = Cmax in Sprague-Dawley rat at 30 mg/kg, po; type: ADME, organism-based; set-up: dose 30 mg/kg, route oral; conditions: in vivo
[7] = Drug level in Sprague-Dawley rat plasma; type: ADME, cell-free
[8] = Ratio of drug level in Sprague-Dawley rat brain to plasma; type: ADME, cell-free; conditions: brain and plasma, read-out: BPR
[9] = tested on: Cynomolgus monkey; assay: Apparent volume of distribution in cynomolgus monkey at 10 mg/kg, po; type: ADME, organism-based, Macaca fascicularis; conditions: in vivo
[10] = AUC (0 to 24 hrs) in cynomolgus monkey at 10 mg/kg, po; type: ADME, organism-based, Macaca fascicularis; set-up: dose 10 mg/kg, time < 24 hr, route oral; conditions: in vivo
[11] = Permeability of the compound by PAMPA; type: ADME; conditions: read-out: permeability
[12] = Solubility of the compound in FeSSIF at pH 5.2; type: physicochemical
[13] = Tmax in Dunkin-Hartley guinea pig at 10 mg/kg, po; type: ADME, organism-based, Cavia porcellus; conditions: in vivo
[14] = Cmax in Dunkin-Hartley guinea pig at 100 mg/kg, po; type: ADME, organism-based, Cavia porcellus; set-up: dose 100 mg/kg, route oral; conditions: in vivo
[15] = AUC (0 to 24 hrs) in Dunkin-Hartley guinea pig at 100 mg/kg, po; type: ADME, organism-based, Cavia porcellus; set-up: time < 24 hr, dose 100 mg/kg, route oral; conditions: in vivo
[16] = tested on: Rattus norvegicus; assay: AUC (0 to 24 hrs) in Sprague-Dawley rat at 10 mg/kg, po; type: ADME, organism-based; set-up: time < 24 hr, dose 10 mg/kg, route oral; conditions: in vivo
[17] = tested on: Rattus norvegicus; assay: Cmax in Sprague-Dawley rat at 10 mg/kg, po; type: ADME, organism-based; set-up: dose 10 mg/kg, route oral; conditions: in vivo
[18] = Tmax in Beagle dog at 10 mg/kg, po; type: ADME, organism-based, Canis lupus familiaris; conditions: in vivo
[19] = Tmax in cynomolgus monkey at 10 mg/kg, po; type: ADME, organism-based, Macaca fascicularis; conditions: in vivo
[20] = Oral bioavailability in Sprague-Dawley rat at 10 mg/kg; type: ADME, organism-based; conditions: in vivo
[21] = tested on: Rattus norvegicus; assay: Tmax in Sprague-Dawley rat at 10 mg/kg, po; type: ADME, organism-based; conditions: in vivo
[22] = Oral bioavailability in Sprague-Dawley rat at 30 mg/kg; type: ADME, organism-based; conditions: in vivo
[23] = Solubility of the compound in 0.1N HCl; type: physicochemical
[24] = Tmax in Dunkin-Hartley guinea pig at 100 mg/kg, po; type: ADME, organism-based, Cavia porcellus; conditions: in vivo
[25] = tested on: Rattus norvegicus; assay: Apparent volume of distribution in Sprague-Dawley rat at 1 mg/kg, iv; conditions: in vivo
[26] = Cmax in cynomolgus monkey at 10 mg/kg, po; type: ADME, organism-based, Macaca fascicularis; set-up: dose 10 mg/kg, route oral; conditions: in vivo
[27] = Cmax in Sprague-Dawley rat at 100 mg/kg, po; type: ADME, organism-based; set-up: dose 100 mg/kg, route oral; conditions: in vivo
[28] = AUC (0 to 24 hrs) in Sprague-Dawley rat at 30 mg/kg, po; type: ADME, organism-based; set-up: time < 24 hr, dose 30 mg/kg, route oral; conditions: in vivo
[29] = Oral bioavailability in cynomolgus monkey at 10 mg/kg; type: ADME, organism-based, Macaca fascicularis; conditions: in vivo
[30] = Solubility of the compound in FaSSIF at pH 6; type: physicochemical
[31] = Plasma concentration in Dunkin-Hartley guinea pig model of LPS-induced thermal hyperalgesia at 3 mg/kg, po pretreated for 4 hrs followed by LPS challenge measured at […] post dose; type: ADME, organism-based, Cavia porcellus
[32] = AUC (0 to 24 hrs) in Sprague-Dawley rat at 100 mg/kg, po; type: ADME, organism-based; set-up: dose 100 mg/kg, time < 24 hr, route oral; conditions: in vivo
[33] = AUC (0 to 24 hrs) in Dunkin-Hartley guinea pig at 10 mg/kg, po; type: ADME, organism-based, Cavia porcellus; set-up: time < 24 hr, dose 10 mg/kg, route oral; conditions: in vivo
[34] = Plasma concentration in Dunkin-Hartley guinea pig model of LPS-induced thermal hyperalgesia at 10 mg/kg, po pretreated for 4 hrs followed by LPS challenge measured at […] post dose; type: ADME, organism-based, Cavia porcellus
[35] = Tmax in Sprague-Dawley rat at 30 mg/kg, po; type: ADME, organism-based; conditions: in vivo
[36] = Solubility of the compound in DMSO; type: physicochemical
[37] = Tmax in Sprague-Dawley rat at 100 mg/kg, po; type: ADME, organism-based; conditions: in vivo
[38] = Tmax in Dunkin-Hartley guinea pig at 30 mg/kg, po; type: ADME, organism-based, Cavia porcellus; conditions: in vivo
[39] = Intrinsic solubility of the compound; type: physicochemical
[40] = AUC (0 to 24 hrs) in Beagle dog at 10 mg/kg, po; type: ADME, organism-based, Canis lupus familiaris; set-up: time < 24 hr, dose 10 mg/kg, route oral; conditions: in vivo
[41] = Plasma concentration in Dunkin-Hartley guinea pig model of LPS-induced thermal hyperalgesia at 30 mg/kg, po pretreated for 4 hrs followed by LPS challenge measured at […] post dose; type: ADME, organism-based, Cavia porcellus
[42] = Drug level in Sprague-Dawley rat brain; type: ADME, tissue-based; conditions: in vivo

CC1(C)Cc2c(c(C(=O)Nc3ccc(C(F)(F)F)cc3)cc3nc(Nc4c(F)cccc4Cl)[nH]c23)O1
Cmax [1]: 1090 ng/mL | solubility [2]: Insoluble | Cmax [3]: 426 ng/mL | Cmax [4]: 742 ng/mL | AUC(0-t) at 24 h [5]: 11600 ng·h/mL | Cmax [6]: 2530 ng/mL | Cp [7]: 268.9 ng/mL | Kp [8]: 0.22 | Vz [9]: 1.67 L/kg | AUC(0-t) at 24 h [10]: 16700 ng·h/mL | Papp [11]: 0.13 ×10⁻⁶ cm/s | solubility [12]: 0.6 µg/mL (≈ 1.16 µM) | Tmax [13]: 4 h | Cmax [14]: 736 ng/mL | AUC(0-t) at 24 h [15]: 11700 ng·h/mL | AUC [16]: 6505 ng·h/mL | Cmax [17]: 546 ng/mL | Tmax [18]: 12 h | Tmax [19]: 6 h | bioavailability [20]: 100% | Tmax [21]: 2 h | bioavailability [22]: 100% | solubility [23]: 0.2 µg/mL (≈ 0.385 µM) | Tmax [24]: 2 h | Vz [25]: 3.59 L/kg | Cmax [26]: 908 ng/mL | Cmax [27]: 5550 ng/mL | AUC(0-t) at 24 h [28]: 32400 ng·h/mL | bioavailability [29]: 78% | solubility [30]: 0.9 µg/mL (≈ 1.73 µM) | concentration at […] [31]: 43 ng/mL | AUC(0-t) at 24 h [32]: 108000 ng·h/mL | AUC(0-t) at 24 h [33]: 5080 ng·h/mL | concentration at […] [34]: 116 ng/mL | Tmax [35]: 2 h | solubility [36]: 25000 µg/mL (≈ 48200 µM) | Tmax [37]: 8 h | Tmax [38]: 4 h | solubility [39]: Soluble | AUC(0-t) at 24 h [40]: 22000 ng·h/mL | concentration at […] [41]: 371 nM | Drug uptake [42]: 58.9 ng/mL

CC1(C)Cc2c(c(C(=O)NCC(F)(F)C(F)(F)F)cc3nc(Nc4c(Cl)cccc4Cl)[nH]c23)O1
solubility [39]: Soluble

CC1(C)Cc2c(c(C(=O)Nc3ccc(F)cc3)cc3nc(Nc4c(Cl)cccc4Cl)[nH]c23)O1
solubility [39]: Soluble

CC1(C)Cc2c(c(C(=O)Nc3ccc(F)c(C(F)(F)F)c3)cc3nc(Nc4c(Cl)cncc4Cl)[nH]c23)O1
solubility [39]: Soluble

CC1(C)Cc2c(c(C(=O)NCC3CC3)cc3nc(Nc4c(Cl)cncc4Cl)[nH]c23)O1
solubility [39]: Soluble

CC1(C)Cc2c(c(C(=O)Nc3ccccc3)cc3nc(Nc4c(Cl)cccc4Cl)[nH]c23)O1
solubility [39]: Soluble

CC1(C)Cc2c(c(C(=O)Nc3ccc(OC(F)F)nc3)cc3nc(Nc4c(F)cccc4Cl)[nH]c23)O1
solubility [39]: Soluble

CC1(C)Cc2c(c(C(=O)NC3CCC(F)(F)CC3)cc3nc(Nc4c(Cl)cccc4Cl)[nH]c23)O1
solubility [39]: Soluble

COc1ccc(NC(=O)c2cc3nc(Nc4c(Cl)cccc4Cl)[nH]c3c3c2OC(C)(C)C3)cn1
solubility [39]: Soluble

CC1(C)Cc2c(c(C(=O)NCC3CCCCC3)cc3nc(Nc4c(Cl)cncc4Cl)[nH]c23)O1
solubility [39]: Soluble

Cc1cc2c(o1)c(C(=O)Nc1ccc(C(F)(F)F)cc1)cc1nc(Nc3c(Cl)cncc3Cl)[nH]c12
solubility [39]: Insoluble

CC1(C)Cc2c(c(C(=O)NCC3CC3)cc3nc(Nc4c(Cl)cccc4Cl)[nH]c23)O1
solubility [39]: Soluble

CC1(C)Cc2c(c(C(=O)Nc3ccc(C(F)(F)F)cc3)cc3nc(Nc4c(Cl)cccc4Cl)[nH]c23)O1
solubility [2]: Insoluble | solubility [12]: 0.6 µg/mL (≈ 1.12 µM) | solubility [23]: 0.1 µg/mL (≈ 0.187 µM) | solubility [30]: 0.3 µg/mL (≈ 0.56 µM) | solubility [36]: 20000 µg/mL (≈ 37400 µM) | solubility [39]: Soluble

CC1(C)Cc2c(c(C(=O)Nc3ccc(Cl)cn3)cc3nc(Nc4c(F)cccc4Cl)[nH]c23)O1
solubility [39]: Soluble

CC1(C)Cc2c(c(C(=O)NCC3CCCC3)cc3nc(Nc4c(Cl)cccc4Cl)[nH]c23)O1
solubility [39]: Soluble

CC1(C)Cc2c(c(C(=O)Nc3ccc(F)cc3)cc3nc(Nc4c(F)cccc4Cl)[nH]c23)O1
solubility [39]: Soluble

CC1(C)Cc2c(c(C(=O)Nc3cccc(C4CC4)c3)cc3nc(Nc4c(F)cccc4Cl)[nH]c23)O1
solubility [39]: Soluble

Cc1cc2c(o1)c(C(=O)Nc1ccc(C(F)(F)F)cc1)cc1nc(Nc3c(Cl)cccc3Cl)[nH]c12
solubility [39]: Insoluble

CC1(C)Cc2c(c(C(=O)Nc3ccc(C(F)(F)F)cc3F)cc3nc(Nc4c(Cl)cncc4Cl)[nH]c23)O1
solubility [39]: Soluble

Cc1cc2c(o1)c(C(=O)Nc1cccc(C(F)(F)F)c1)cc1nc(Nc3c(Cl)cccc3Cl)[nH]c12
solubility [39]: Insoluble

Cc1ccc(NC(=O)c2cc3nc(Nc4c(Cl)cccc4Cl)[nH]c3c3c2OC(C)(C)C3)c(C)n1
solubility [39]: Soluble

CC1(C)Cc2c(c(C(=O)Nc3ccc(C4CC4)cc3)cc3nc(Nc4c(F)cccc4Cl)[nH]c23)O1
solubility [39]: Soluble

CC1(C)Cc2c(c(C(=O)NCC(F)(F)F)cc3nc(Nc4c(Cl)cccc4Cl)[nH]c23)O1
solubility [39]: Soluble

CC1(C)Cc2c(c(C(=O)Nc3ccc(C(F)(F)F)nc3)cc3nc(Nc4c(Cl)cccc4Cl)[nH]c23)O1
solubility [39]: Soluble

CC1(C)Cc2c(c(C(=O)NC3CCCCC3)cc3nc(Nc4c(Cl)cncc4Cl)[nH]c23)O1
solubility [39]: Soluble

CC1(C)Cc2c(c(C(=O)Nc3ccc(C(F)(F)F)cc3)cc3nc(Nc4c(Cl)cncc4Cl)[nH]c23)O1
solubility [39]: Soluble
